The text below walks through data of paper PMC10313070, “Design, in silico and pharmacological evaluation of a peptide inhibitor of BACE-1” (Frontiers in Pharmacology, 2023).

Data set [1] concerns BACE-1. Set-up: method as in Lee et al., 2019. The note with it: ref Lee et al., 2019; cited from earlier work.
In a further data set the test system is SH-SY5Y cells. Set-up: method as in Lee et al., 2019. As to conditions: ref Lee et al., 2019; cited from earlier work.
For a further data set, the target named is T1, recombinant BACE-1 (Homo sapiens, UniProt P56817).
T1 construct: purchased Sigma-Aldrich MAK237
Kind of data set: Enzymatic kinetics on recombinant BACE-1 (Lineweaver-Burk). In kind it is biochemical. The note with it: 10 μM peptide, substrate 0–32 µM. How it is done: The peptide was commercially obtained (manufactured by Biotik, commercialized by FastBio, Brazil) and synthetized by the solid phase with >95% purity. The peptide was tested using an enzymatic kinetics model, in which 10 μM of peptide (diluted in 0.9% saline solution) was incubated with recombinant BACE-1 and reaction buffer for 15 min at room temperature (MAK237, Sigma-Aldrich, St Louis, MO, United States). After that, H-Arg-Glu (EDANS)[…](DABCYL)Arg-OH quencher substrate (0–32 µM) was added to the reaction mixture. Readings were taken using a fluorimeter (Glomax, Promega, Madison, WI, United States) every 5 min at 37° in a λex = 335 and λem = 510. Experiments were conducted in triplicate in two independent sets, and the mean of fluorescence was obtained for further calculations. The velocity of the reaction was calculated as ∆ fluorescence values at ∆ time for each substrate concentration. 1/V and 1/S values were obtained and plotted in a graph (Lineweaver–Burk plot), and kinetic parameters (slope, Vmax, Km, and Ki) were calculated as the mean ± SD using GraphPad Prism v5.

A further data set is described as follows: in vivo. Set-up: species or system mice. The note with it: mouse. How it is done:
Authorization for pharmacokinetics analyses was obtained from the Ethics Committee of Instituto Butantan (CEUAIB 58872400322), where the experiments with animals were carried out. Healthy adult male Swiss mice weighing approximately 25 g were used. All animals were placed in microisolators for a 12-h light/dark cycle, 70% humidity, and a constant average temperature (22°C).
(§1) A single dose of the peptide diluted in sterile PBS (pH 7.4) was injected intravenously in the bolus into the caudal vein of mice (n = 3) at a concentration of 4 mg/kg (0.2 mL). A group of animals (n = 3) received the sterile saline solution for the plasma and organ control, without the peptide (named ‘basal’). Blood was taken after 0, 5, and 30 min and 2, 6, and 24 h after injection. At these times, blood was collected via the retro-orbital route using a Pasteur pipette and dispensed into plastic tubes containing EDTA. The final blood volume was subjected to centrifugation at 1,500 rpm for 10 min at room temperature to obtain plasma, which was stored in a −80°C freezer until the analysis.
(§2) Both plasma and organs (150 μL) were incubated with 100 mM DL-dithiothreitol at room temperature for 30 min; after that, they were incubated to 300 mM iodoacetamide at room temperature for another 30 min in the dark. Subsequently, 150 μL of 0.1% formic acid solution and 400 μL of Milli-Q water were added and agitated for 5 min. The samples were then submitted to solid-phase extraction using a C18 cartridge (Supelco) with elution in a 60:40 acetonitrile:water solution (v/v). The eluate was inserted by mass spectrometry for analysis and quantification.
(§3) The determination and quantification of the peptide in plasma and organs of mice were performed by liquid chromatography (UPLC system, Waters Co.) coupled to mass spectrometry ESI-Xevo TQ-S (Waters Co., United States). The samples were inserted in a C18 column (Luna, 5 μm, 150 × 4.6 mm, Phenomenex) and eluted by 70% methanol in water, containing 0.05% formic acid in a constant flow of 0.3 mL/min. The ion was monitored at the positive ionization mode, 150°C source temperature, 550°C desolvation temperature, 800 L/h desolvation gas flow, 2 kV for capillary, and […] cone voltage. Data were acquired and analyzed using MassLynx 4.
(§4) To define the relationship between the instrument response and the known concentration of the peptide, a calibration curve with six points of the peptide (0.1–20 μg/mL for plasma and 5–40 μg/mL for organs) was generated in a range defined according to the sensitivity of the method and the expected concentrations of the samples in animals (based on the amount of peptide injected).
Each analysis lot contained the following samples: a calibration curve consisting of a blank sample (peptide-free biological matrix), samples containing peptide standard, and plasma or organ samples. Calibration functions were calculated using the peak areas of the peptide. The peptide concentrations in the samples were calculated from the weighted linear regression equation (1/×2) obtained from the calibration curve (peptide concentration as the function of the area). This regression model (1/×2) was used because of the amplitude of the calibration curve.
(§5) The plasma concentration (Cp), in µg/L, was determined by mass spectrometric analysis, and then, area data were analyzed using the PKSolver add-in program for Microsoft Excel. Pharmacokinetics parameters as the natural logarithm of Cp (lnCp), Cp0, half-life, and clearance were calculated in a compartmental analysis of plasma data after the intravenous bolus input ([Zhang et al., 2010]). For organs, data are present as mean ± SD for each point.

Data set [2] is described as follows: Peptide quantification in mouse organs by mass spectrometry. In kind it is in vivo. The note with it: mice, 4 mg/kg i.v. How it is done:
as §1
Moreover, organs were obtained at the same times, after a lethal injection of anesthetics (ketamine 300 mg/kg and xylazine 30 mg/kg). The organs collected included the brain, pancreas, spleen, kidneys, lungs, and liver. The organs were washed with the saline solution to remove excess blood, frozen in liquid nitrogen, and kept at −80°C until use. For the experiments, organs were submerged in 1 mL of 50 mM PBS with pH 7.5 containing peptidases inhibitors (aprotinin, bestatin, E-64, leupeptin, and pepstatin A, a protease inhibitor cocktail, Sigma-Aldrich) and lysed in a tissue and cell disruptor (ULTRA-TURRAX IKA, Staufen, Germany). The lysate was centrifuged for 2 min at 13,200 rpm at 4°C, and the supernatant resulting from centrifugation was stored in a −80°C freezer until the analysis.
as §2, §3, §4, §5

Data set [3] can be described thus: Histology of organs and toxicity after peptide injection. In kind it is in vivo, mice. The text has this:
Organs were removed and immediately fixed in Bouin’s solution for processing by dehydration ethanol sessions and historesin embedding to obtain 3 µm thick transversal slides. Sections were stained with hematoxylin–eosin and examined using a light microscope for a qualitative analysis.

Data set [4] has as its system BACE-1. Set-up: method as in Wu et al., 2016. The note with it: ref Wu et al., 2016; cited from earlier work.

pIC50, pKi: −log10 of the molar value. Entries after “also recorded” stand apart in the source; their conditions may differ. No end group written: not given here.

T1 sequence (P56817 46-501): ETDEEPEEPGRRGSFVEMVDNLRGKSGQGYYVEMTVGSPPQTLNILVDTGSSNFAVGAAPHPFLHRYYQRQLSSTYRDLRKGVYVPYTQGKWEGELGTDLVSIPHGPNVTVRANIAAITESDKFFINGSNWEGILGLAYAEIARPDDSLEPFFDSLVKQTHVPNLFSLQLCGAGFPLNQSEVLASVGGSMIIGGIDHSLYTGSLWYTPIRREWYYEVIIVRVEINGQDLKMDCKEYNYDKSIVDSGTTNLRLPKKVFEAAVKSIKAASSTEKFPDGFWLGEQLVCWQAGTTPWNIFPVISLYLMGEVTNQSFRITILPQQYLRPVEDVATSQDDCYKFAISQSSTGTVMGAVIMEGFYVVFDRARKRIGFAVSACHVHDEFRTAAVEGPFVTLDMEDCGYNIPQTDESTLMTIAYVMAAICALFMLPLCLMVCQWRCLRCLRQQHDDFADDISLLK

In the case of Leu–Asn, the “BACE-1 inhibitory activity among fragments derived from the original peptide” value with BACE-1 [1] is listed as “most potent activity”. Moreover, the “Aβ production in SH-SY5Y cells” value with SH-SY5Y cells is on record as “reducing the Aβ production”.
SLAFVDVLN [peptide]: the pKi at recombinant BACE-1 is 7.03. For the same substance, in “in vivo” (male, Swiss, iv, 4 mg/kg), the AUC(0-inf) is 2600 ng·h/mL, the AUC(0-t) worked out at 2600 ng·h/mL, the C0 is 2600 ng/mL and the mean residence time (MRT) amounted to 1 h. Also, the half-life in the data set “in vivo” (male, Swiss, iv, 4 mg/kg, t1/2) was ~1 h. For the same substance, in the data set “in vivo”, the Vss was 0.0015 and the clearance came to 0.0015. In addition, in “in vivo” (iv), the “Enzymatic cleavage of the peptide in vivo (intact mass, fragments by mass spectrometry)” value is “no enzymatic cleavage”. Moreover, in the data set “in vivo” (iv, 4 mg/kg), the AUMC is reported as 2,595.96 μg/L*h^2, the CL is 0.00154 (mg/kg)/(μg/L)/h, the V is 0.00154 (mg/kg)/(μg/L) and the Vss is recorded as 0.0015 mg/kg/(μg/L). In data set [2], the “Peptide concentration in the kidneys over time” value is reported as “increased 30 min after the injection, slightly decreased after 2 h, but increased after 6 h”; the “Time of peak of the peptide in the brain” value worked out at 2 h; the “Time of peak of the peptide in the liver” value was determined as 30 min; the “Time of peak of the peptide in the spleen” value is reported as 30 min. Further, in data set [2], the “Time the peptide could be found in the brain” value is reported as “up to 6 h”. In addition, in data set [2] (5 min after injection), the “Peptide concentration in the lungs” value is “high concentration”. The “Peptide in the pancreas” value in data set [2] (4 mg/kg) was “not possible to identify; also recorded: could not be found”. Also, the “Clinical signals of toxicity” value in data set [3] (mice, single dose) is reported as “no clinical signals of toxicity were observed”. The “Histological alterations (cell/tissue morphology, inflammatory infiltrate)” value in data set [3] (spleen, liver, pancreas, lungs, kidneys, 5 and 30 min, 2 and 6 h after single 4 mg/kg i.v. dose, 4 mg/kg) is “no morphological alteration in any organ; also recorded: No alterations were detected”.
For pyrazinecarboxamide, in the data set on BACE-1 [4], the pIC50 was > 9.00.

A word on the pKi: it is −log10 of the Ki, conventionally taken in molar units. As usually defined, the AUC(0-inf) is the area under the concentration-time curve extrapolated to infinity. A lower AUC(0-inf) goes with less exposure. The AUC(0-t) is exposure summed from dosing to a finite time, without extrapolation to infinity. A high value points to high exposure. The MRT is the average time that molecules of a dose stay in the body. For orientation: half-life means the time in which the quantity being followed falls by half. Usually pIC50 stands for −log10 of the IC50, conventionally taken in molar units.
